Measurements as given in patent US5214204A, “Arylamidoalkyl-N-hydroxyurea compounds having lipoxygenase inhibitory activity” (Abbott Laboratories, priority 1991, dated 1993).

These molecules were tested against T1, 5-Lipoxygenase from HWBL-1 20,000 xg Supernatant (Rattus norvegicus, UniProt P12527) (assay: 5-lipoxygenase inhibition, 20,000 xg supernatant of homogenized HWBL-1 cells, radiolabeled arachidonic acid). Details: read-out: IC50 (in vitro inhibitory potency against 5-lipoxygenase).
T1 construct: 20,000 xg supernatant from 1.5 million homogenized HWBL-1 cells; endogenous in cells
T1 sequence (P12527 1-673): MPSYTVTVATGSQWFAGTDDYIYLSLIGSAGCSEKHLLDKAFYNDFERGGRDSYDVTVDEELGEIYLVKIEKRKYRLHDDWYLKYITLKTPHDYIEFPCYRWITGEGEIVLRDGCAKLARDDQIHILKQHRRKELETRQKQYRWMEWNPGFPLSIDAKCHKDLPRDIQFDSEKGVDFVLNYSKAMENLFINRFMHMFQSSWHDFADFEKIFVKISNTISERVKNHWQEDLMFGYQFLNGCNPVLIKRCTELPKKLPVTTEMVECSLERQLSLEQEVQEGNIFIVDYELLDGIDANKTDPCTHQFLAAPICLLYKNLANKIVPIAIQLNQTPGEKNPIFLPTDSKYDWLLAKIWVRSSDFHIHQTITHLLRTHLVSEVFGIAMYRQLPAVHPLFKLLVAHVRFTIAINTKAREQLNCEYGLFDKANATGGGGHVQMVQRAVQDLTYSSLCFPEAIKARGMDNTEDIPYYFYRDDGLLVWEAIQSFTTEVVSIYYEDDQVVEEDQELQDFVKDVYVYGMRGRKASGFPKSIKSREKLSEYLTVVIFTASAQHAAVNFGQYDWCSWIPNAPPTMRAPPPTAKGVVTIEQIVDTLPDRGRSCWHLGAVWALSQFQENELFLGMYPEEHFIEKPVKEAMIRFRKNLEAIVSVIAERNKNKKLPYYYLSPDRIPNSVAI
Format: biochemical
Description: Assays to determine 5-lipoxygenase inhibitory activity of representative compounds of the present invention were performed in […] incubations containing the 20,000 xg supernatant from 1.5 million homogenized HWBL-1 cells and various concentrations of the test compound. Reactions were initiated by addition of radiolabeled arachidonic acid and terminated by acidification and ether extraction. Reaction products were separated from nonconverted substrate by thin layer chromatography and measured by liquid scintillation spectroscopy. All incubations are performed in triplicate. Inhibition of 5-lipoxygenase activity was calculated as the ratio of the amount of product formed in the presence and absence of inhibitor. IC50 values (concentration of compound producing 50% enzyme inhibition) were calculated by linear regression analysis of percentage inhibition versus log inhibitor concentration plots. (Dyer, R. D.; Haviv, F.; Hanel, A. M.; Bornemier, D. A.; Carter, G. W. Fed. Proc., Fed. Am. Soc. Exp. Biol. 1984, 43, 1462A).
In Vitro Inhibitory Potencies of Compounds of this Invention
Against 5-Lipoxygenase from HWBL-1 20,000 xg Supernatant

SMILES	IC50
CN(C(=O)CN(O)C(N)=O)c1cccc(Oc2ccccc2)c1 [5, step 2]	6300 nM
CNC(=O)N(O)CC(=O)N(C)c1cccc(Oc2ccccc2)c1 [5, step 3]	7300 nM
NC(=O)N(O)CC(=O)Nc1cccc(OCc2ccccc2)c1 [Example 3, N-Hydroxy-N-[(((3-phenylmethoxyphenyl)amino)carbonyl)methyl]urea]	870 nM
CN(C(=O)CN(O)C(N)=O)c1ccc(Oc2ccccc2)cc1 [Example 4]	5800 nM
CN(C(=O)CN(O)C(N)=O)c1cccc(OCc2ccccc2)c1 [Example 9, N-Hydroxy-N-[((N-methyl-(3-phenylmethoxyphenyl)amino)carbonyl)methyl]urea]	2800 nM
NC(=O)N(O)CC(=O)Nc1ccc(Oc2ccccc2)cc1 [Example 10, N-Hydroxy-N-[(((4-phenoxyphenyl)amino)carbonyl)methyl]urea]	3500 nM
CC(/C=C/c1ccc(Br)cc1)NC(=O)CN(O)C(N)=O (stereo not drawn) [Example 11, N-Hydroxy-N-[(((trans-4-(4-bromophenyl)but-3-en-2-yl)amino)carbonyl)methyl]urea]	6600 nM
CC(/C=C\c1cccc(Oc2ccccc2)c1)NC(=O)CN(O)C(N)=O (stereo not shown) [Example 13]	830 nM
CN(CCN(O)C(N)=O)C(=O)Cc1ccc(Br)cc1 [Example 14, N-Hydroxy-N-[2-(((4-bromophenylacetyl)-N-methyl)amino)ethyl]urea]	1800 nM
COc1cccc(C(=O)NCCN(O)C(N)=O)c1 [Example 16]	1900 nM
COc1ccc(C(=O)NCCN(O)C(N)=O)cc1 [Example 17]	5000 nM
CCCCOc1ccc(C(=O)NCCN(O)C(N)=O)cc1 [Example 18]	250 nM
NC(=O)N(O)CCNC(=O)c1ccc(Cl)cc1 [Example 20, N-Hydroxy-N-[2-((4-chlorobenzoyl)amino)ethyl]urea]	4500 nM
CNC(=O)N(O)CCNC(=O)c1cccc(Oc2ccc(Cl)cc2)c1 [Example 27, N-Hydroxy-N'-methyl-N-[2-((3-(4-chlorophenoxy)benzoyl)amino)ethyl]urea]	760 nM
COc1ccc(CN(C)CCN(O)C(N)=O)cc1OCc1ccccc1 [Example 41, N-Hydroxy-N-[2-(((((4-methoxy-3-phenylmethoxy)phenyl)methyl)-N-methyl)amino)ethyl]urea]	1600 nM
NC(=O)N(O)CCNS(=O)(=O)c1ccc2ccccc2c1 [Example 48, N-Hydroxy-N-[2-((naphth-2-ylsulfonyl)amino)ethyl]urea]	1100 nM
CC(CN(O)C(N)=O)N(C)C(=O)c1cccc(Oc2ccc(Cl)cc2)c1 (stereo not shown) [Example 50, N-Hydroxy-N-[2-(((3-(4-chlorophenoxy)benzoyl)-N-methyl)amino)propyl]urea]	5800 nM
COc1ccc2cc(/C=C(\C)C(=O)NCCN(O)C(N)=O)ccc2c1 [Example 76, N-Hydroxy-N-[2-(((3-(6-methoxynaphth-2-yl)prop-2-en-2-yl)carbonyl)amino)ethyl]urea]	1000 nM
CC(C)Cc1ccc(C(C)C(=O)NCCN(O)C(N)=O)cc1 (stereo not shown) [Example 82, N-Hydroxy-N-[2-((2-(4-(2-methylpropyl)phenyl)propionyl)amino)ethyl]urea]	5000 nM
NC(=O)N(O)CCNC(=O)c1csc(-c2ccccc2)n1 [Example 84, N-Hydroxy-N-[2-((2-phenylthiazol-4-oyl)amino)ethyl]urea]	930 nM

More lines, in order of falling IC50, values ahead:

IC50	SMILES
730 nM	CC(/C=C/c1cccc(Oc2ccccc2)c1)NC(=O)CN(O)C(N)=O (stereo not drawn) [Example 12, N-Hydroxy-N-[(((trans-4-(3-phenoxyphenyl)but-3-en-2-yl)amino)carbonyl)methyl]urea]
640 nM	CN(CCN(O)C(N)=O)C(=O)c1cccc(Oc2ccccc2)c1 [Example 15]
610 nM	CC(CNC(=O)c1cccc(Oc2ccccc2)c1)N(O)C(N)=O (stereo not shown) [Example 33, N-Hydroxy-N-[3-((3-phenoxybenzoyl)amino)prop-2-yl]urea]
480 nM	NC(=O)N(O)CC(=O)Nc1cccc(Oc2ccccc2)c1 [Example 1, N-Hydroxy-N-[(((3-phenoxyphenyl)amino)carbonyl)methyl]urea]
470 nM	CC(C)(C)c1ccc(Oc2cccc(C(=O)NCCN(O)C(N)=O)c2)cc1 [Example 31, N-Hydroxy-N-[2-((3-(4-tert-butylphenoxy)benzoyl)amino)ethyl]urea]
440 nM	NC(=O)N(O)CCNC(=O)Cc1ccccc1Nc1c(Cl)cccc1Cl [Example 83, N-Hydroxy-N-[2((2-(2.6-dichlorophenylamino)phenylacetyl)amino)ethyl]urea]
430 nM	NC(=O)N(O)CCNC(=O)c1cccc(Oc2cccc(C(F)(F)F)c2)c1 [Example 25, N-Hydroxy-N-[2-((3-(3-trifluoromethylphenoxy)benzoyl)amino)ethyl]urea]
390 nM	CC(C(=O)NCCN(O)C(N)=O)c1cccc(C(C)c2ccccc2)c1 (stereo not shown) [Example 69, N-Hydroxy-N-[2-(((3-(1-phenylethyl)phenyl)propion-2-yl)amino)ethyl]urea]
390 nM	NC(=O)N(O)CCNC(=O)CCc1ccccc1 [Example 77, N-Hydroxy-N-[2-((3-phenylpropionyl)amino)ethyl]urea]
380 nM	NC(=O)N(O)CCNC(=O)c1ccc(-c2ccccc2)cc1 [Example 34, N-Hydroxy-N-[2-((4-phenylbenzoyl)amino)ethyl]urea]
350 nM	CC(Oc1cccc(C(=O)NCCN(O)C(N)=O)c1)c1ccccc1 (stereo not shown) [Example 67, N-Hydroxy-N-[2-((3-(1-phenylethyloxy)benzoyl)amino)ethyl]urea]
340 nM	NC(=O)N(O)CCNC(=O)c1cccc(Oc2cc(Cl)cc(Cl)c2)c1 [Example 30, N-Hydroxy-N-[2-((3-(3.5-dichlorophenoxy)benzoyl)amino)ethyl]urea]
330 nM	NC(=O)N(O)CCCCNC(=O)c1cccc(Oc2ccccc2)c1 [Example 22, N-Hydroxy-N-[4-((3-phenoxybenzoyl)amino)butyl]urea]
310 nM	CN(CCN(O)C(N)=O)Cc1cccc(Oc2ccc(Cl)c(Cl)c2)c1 [Example 39, N-Hydroxy-N-[2-(N-methyl((3-(3,4-dichlorophenoxy)phenyl)methyl)amino)ethyl]urea]
300 nM	NC(=O)N(O)CCNC(=O)c1cccc(Oc2ccc(Cl)c(Cl)c2)c1 [Example 29, N-Hydroxy-N-[2-((3-(3,4-dichlorophenoxy)benzoyl)amino)ethyl]urea]
290 nM	CNC(=O)N(O)CCNC(=O)c1cccc(Oc2ccccc2)c1 [Example 24, N-Hydroxy-N'-methyl-N-[2-((3-phenoxybenzoyl)amino)ethyl]urea]
290 nM	CC(C)Oc1cccc(C(=O)NCCN(O)C(N)=O)c1 [Example 46, N-Hydroxy-N-[2-((3-(1-methylethoxy)benzoyl)amino)ethyl]urea]
290 nM	NC(=O)N(O)CCNC(=O)c1cccn1Cc1ccc(Cl)cc1 [Example 49, N-Hydroxy-N-[2-(((1-(4-chlorophenylmethyl)pyrrol-2-yl)carbonyl)amino)ethyl]urea]
290 nM	CCCCCCOc1ccc(C(=O)NCCN(O)C(N)=O)cc1 [Example 57, N-Hydroxy-N-[2-((4-n-hexyloxybenzoyl)amino)ethyl]urea]
250 nM	CC(Oc1ccc(C(=O)NCCN(O)C(N)=O)cc1)c1ccccc1 (stereo not shown) [Example 66, N-Hydroxy-N-[2-((4-(1-phenylethyloxy)benzoyl)amino)ethyl]urea]
230 nM	COc1ccc(Oc2cccc(C(=O)NCCN(O)C(N)=O)c2)cc1 [Example 28, N-Hydroxy-N-[2-((3-(4-methoxyphenoxy)benzoyl)amino)ethyl]urea]
230 nM	C=C(C)COc1cccc(C(=O)NCCN(O)C(N)=O)c1 [Example 47, N-Hydroxy-N-[2-((3-(2-methyl-prop-2-enyloxy)benzoyl)amino)ethyl]urea]
220 nM	NC(=O)N(O)CCNC(=O)c1cccc(C(=O)c2ccccc2)c1 [Example 65, N-Hydroxy-N-[2-((3-benzoylbenzoyl)amino)ethyl]urea]
110 nM	NC(=O)N(O)CCNC(=O)COc1ccc(Oc2ccccc2)cc1 [Example 72, N-Hydroxy-N-[2-((4-phenoxyphenoxyacetyl)amino)ethyl] urea]
100 nM	NC(=O)N(O)CCNC(=O)c1cscc1Sc1ccc(Cl)cc1 [Example 59, N-Hydroxy-N-[2-((4-(4-chlorothiophenoxy)thien-3-oyl)amino)ethyl]urea]
100 nM	NC(=O)N(O)CCNC(=O)c1ccc2ccccc2n1 [Example 75, N-Hydroxy-N-[2-((quinolin-2-oyl)amino)ethyl]urea]
